What all share (format): in vivo
Experiment [1] concerns wild oats (Avena fatua). As to the kind of experiment: Postemergence herbicidal activity, wild oats. The settings on record: Avena fatua, post-emergence, 336 h, Post, read-out: % control, Wild oat; for pest or weed control at 4483.4 g/ha: 4 lb/A. The essentials:
(§1)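 Step one: plant crop and weed seeds in soil flats. Step two: spray the acetone-dissolved, water-diluted compound (carrier 50 gal/A, dose in lb/A) immediately for preemergence, or after two weeks' growth for postemergence. Step three: about two weeks on, rate phytotoxicity as percent killed.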

In experiment [2] the test system is yellow nutsedge (Cyperus esculentus). As to the kind of experiment: Postemergence herbicidal activity, yellow nutsedge. The settings on record: Cyperus, post-emergence, 336 h; for pest or weed control at 4483.4 g/ha: 4 lb/A. Put shortly: as §1
Experiment [3] deals with morningglory (Ipomoca spp.). The experiment can be described thus: Postemergence herbicidal activity, morningglory. The settings on record: Ipomoea, post-emergence, 336 h; for pest or weed control at 4483.4 g/ha: 4 lb/A. Put shortly:
as §1

Experiment [4] concerns barnyardgrass (Echinochloa crusgalli). The experiment can be described thus: Preemergence herbicidal activity, barnyardgrass. The settings on record: Echinochloa crus-galli, pre-emergence, 336 h, Pre; for pest or weed control at 8966.8 g/ha: 8 lb/A. Put shortly:
(§2)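 Seeds were sown in soil flats and sprayed either immediately after planting (preemergence) or two weeks after germination (postemergence). The test compound was dissolved in acetone, diluted with water and applied at a carrier volume equivalent to 50 gallons per acre, dosed in pounds per acre (lb/A).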

For experiment [5], the system named is cocklebur (Xanthium pensylvanicum). The experiment can be described thus: Preemergence herbicidal activity, cocklebur. The following applies: Xanthium strumarium, pre-emergence, 336 h; for pest or weed control at 8966.8 g/ha: 8 lb/A. Put shortly:
as §1

Experiment [6] relates to morningglory (Ipomoca spp.). The experiment can be described thus: Preemergence herbicidal activity, morningglory. The settings on record: Ipomoea, pre-emergence, 336 h; for pest or weed control at 8966.8 g/ha: 8 lb/A. Put shortly:
as §1

In experiment [7] the test system is marigold (Tagetes spp.). As to the kind of experiment: Postemergence herbicidal activity, marigold. The settings on record: post-emergence, 336 h; for pest or weed control at 4483.4 g/ha: 4 lb/A. The essentials:
as §1

Experiment [8] relates to foxtail (Setaria spp.). As to the kind of experiment: Postemergence herbicidal activity, foxtail. The following applies: Setaria, post-emergence, 336 h, Post; for pest or weed control at 4483.4 g/ha: 4 lb/A. Put shortly:
as §1

Experiment [9] has as its system marigold (Tagetes spp.). As to the kind of experiment: Preemergence herbicidal activity, marigold. The following applies: pre-emergence, 336 h; for pest or weed control at 8966.8 g/ha: 8 lb/A. Put shortly:
as §1

Experiment [10] deals with cocklebur (Xanthium pensylvanicum). The experiment can be described thus: Postemergence herbicidal activity, cocklebur. The settings on record: Xanthium strumarium, post-emergence, 336 h; for pest or weed control at 4483.4 g/ha: 4 lb/A. The essentials:
as §1

The test system of experiment [11] is foxtail (Setaria spp.). As to the kind of experiment: Preemergence herbicidal activity, foxtail. The following applies: Setaria, pre-emergence, 336 h, Pre; for pest or weed control at 8966.8 g/ha: 8 lb/A. Put shortly: as §1
The subject of experiment [12] is tomato (Lycopersicon esculentum). The experiment can be described thus: Postemergence herbicidal activity, tomato. The following applies: Solanum lycopersicum, post-emergence, 336 h, Post; for pest or weed control at 4483.4 g/ha: 4 lb/A. The essentials:
as §1

Experiment [13] deals with yellow nutsedge (Cyperus esculentus). As to the kind of experiment: Preemergence herbicidal activity, yellow nutsedge. The following applies: Cyperus, pre-emergence, 336 h; for pest or weed control at 8966.8 g/ha: 8 lb/A. The essentials: as §1
Experiment [14] concerns velvetleaf (Abutilon theophrasti). The experiment can be described thus: Preemergence herbicidal activity, velvetleaf. The following applies: Abutilon theophrasti, pre-emergence, 336 h, Pre; for pest or weed control at 8966.8 g/ha: 8 lb/A. The essentials: as §1
The test system is the same in experiment [15]. The experiment can be described thus: Postemergence herbicidal activity, velvetleaf. The following applies: Abutilon theophrasti, post-emergence, 336 h; for pest or weed control at 4483.4 g/ha: 4 lb/A. The essentials: as §2
For experiment [16], the system named is wild oats (Avena fatua). As to the kind of experiment: Preemergence herbicidal activity, wild oats. The settings on record: Avena fatua, pre-emergence, 336 h, Pre, read-out: % control, Wild oat; for pest or weed control at 8966.8 g/ha: 8 lb/A. Put shortly:
as §1

For experiment [17], the system named is tomato (Lycopersicon esculentum). The experiment can be described thus: Preemergence herbicidal activity, tomato. The following applies: Solanum lycopersicum, pre-emergence, 336 h, Pre; for pest or weed control at 8966.8 g/ha: 8 lb/A. Put shortly: as §1
For experiment [18], the system named is downybrome (Bromus tectorum). The experiment can be described thus: Postemergence herbicidal activity, downybrome. The settings on record: Bromus tectorum, post-emergence, 336 h, Post; for pest or weed control at 4483.4 g/ha: 4 lb/A. The essentials: as §1
Experiment [19] relates to barnyardgrass (Echinochloa crusgalli). As to the kind of experiment: Postemergence herbicidal activity, barnyardgrass. The following applies: Echinochloa crus-galli, post-emergence, 336 h, Post; for pest or weed control at 4483.4 g/ha: 4 lb/A. The essentials: as §2
In experiment [20] the test system is downybrome (Bromus tectorum). As to the kind of experiment: Preemergence herbicidal activity, downybrome. The following applies: Bromus tectorum, pre-emergence, 336 h, Pre; for pest or weed control at 8966.8 g/ha: 8 lb/A. Put shortly: as §1

In the case of `CCOC(=O)C(C)Oc1ccc([S+]([O-])c2ccc(C(F)(F)F)cc2Cl)cc1` (stereo not shown) [Example 42], the pest or weed control at 4483.4 g/ha worked out at 0% in the experiment with wild oats (Avena fatua) [1]; 0% in [2]; 0% in experiment [3]; 95% in experiment [4] (4 lb/A); 0% in [5] (4 lb/A); 0% in [6] (4 lb/A). The pest or weed control at 4483.4 g/ha was determined as 0% with marigold (Tagetes spp.) [7]; 0% with foxtail (Setaria spp.) [8]; 0% in the experiment on marigold (Tagetes spp.) [9] (4 lb/A); 0% in [10]; 99% in the experiment with foxtail (Setaria spp.) [11] (4 lb/A); 0% in [12]. For the same compound, the pest or weed control at 4483.4 g/ha in [13] (4 lb/A) came to 0%; in experiment [14] (4 lb/A) it was 40%; in experiment [15], 0%; with wild oats (Avena fatua) [16] (4 lb/A) it was 20%; in experiment [17] (4 lb/A), 0%; in [18], 0%. Moreover, the pest or weed control at 4483.4 g/ha in experiment [19] turned out to be 0%; in [20] (4 lb/A) it was 40%.
Take `CCOC(=O)C(C)Oc1ccc(Sc2ccccc2C(F)(F)F)cc1` (stereo not shown) [Example 44, ethyl 2-(4-(2-trifluoromethylphenylthio)phenoxy) propionate]: the pest or weed control at 4483.4 g/ha in the experiment with wild oats (Avena fatua) [1] is 0%; in experiment [2], 0%; in experiment [3] it was 0%; in the experiment on marigold (Tagetes spp.) [7], 0%; with foxtail (Setaria spp.) [8] it was 20%; in experiment [10], 0%. Further, the pest or weed control at 4483.4 g/ha in experiment [12] worked out at 0%; in experiment [15], 20%; in [18], 0%; in experiment [19] it was 0%. Besides, the pest or weed control at 8966.8 g/ha worked out at 80% in experiment [4]; 0% in experiment [5]; 0% in experiment [6]; 0% in the experiment with marigold (Tagetes spp.) [9]; 0% in the experiment with foxtail (Setaria spp.) [11]; 0% in experiment [13]. Moreover, the pest or weed control at 8966.8 g/ha turned out to be 30% in experiment [14], 0% in the experiment with wild oats (Avena fatua) [16], 0% in experiment [17] and 60% in [20].
`CCOC(=O)C(C)Oc1ccc(Sc2cccc(C(F)(F)F)c2)cc1` (stereo not shown) [Example 45, Ethyl 2-[4-(3-trifluoromethylphenylthio)phenoxy] propionate]: the pest or weed control at 4483.4 g/ha with wild oats (Avena fatua) [1] was 20%; in experiment [2] it was 0%; in experiment [3], 0%; in the experiment on marigold (Tagetes spp.) [7], 0%; in the experiment on foxtail (Setaria spp.) [8], 30%; in [10], 0%. Besides, the pest or weed control at 4483.4 g/ha came out at 80% in experiment [12], 0% in experiment [15], 20% in [18] and 20% in experiment [19]. The pest or weed control at 8966.8 g/ha (in [4]; in experiment [5]; in experiment [6]; with marigold (Tagetes spp.) [9]; with foxtail (Setaria spp.) [11]; in experiment [13]) was 0% each time. For the same compound, the pest or weed control at 8966.8 g/ha (in experiment [14]; with wild oats (Avena fatua) [16]; in experiment [17]; in [20]) was 0% throughout.
Take `CCOC(=O)C(C)Oc1ccc(Sc2ccc(C(F)(F)F)cc2)cc1` (stereo not shown) [Example 46]: the pest or weed control at 4483.4 g/ha in the experiment with wild oats (Avena fatua) [1] was 20%; in experiment [2], 0%; in experiment [3] it was 0%; with marigold (Tagetes spp.) [7] it was 0%; with foxtail (Setaria spp.) [8] it was 30%; in [10] it was 0%. Moreover, the pest or weed control at 4483.4 g/ha turned out to be 80% in experiment [12], 0% in [15], 30% in experiment [18] and 50% in experiment [19]. Further, the pest or weed control at 8966.8 g/ha was found to be 70% in experiment [4]; 0% in [5]; 0% in [6]; 0% in the experiment on marigold (Tagetes spp.) [9]; 70% with foxtail (Setaria spp.) [11]; 0% in experiment [13]. The pest or weed control at 8966.8 g/ha is 0% in experiment [14], 0% in the experiment with wild oats (Avena fatua) [16], 0% in [17] and 50% in experiment [20].
`CCOC(=O)C(C)Oc1ccc(Sc2ccc(C(F)(F)F)cc2C#N)cc1` (stereo not shown) [Example 47]: the pest or weed control at 2241.7 g/ha with wild oats (Avena fatua) [1] (2 lb/A) was determined as 99%; in experiment [2] (2 lb/A), 0%; in experiment [3] (2 lb/A), 0%; in experiment [4] (2 lb/A) it was 100%; in experiment [5] (2 lb/A), 0%; in experiment [6] (2 lb/A) it was 0%. Also, the pest or weed control at 2241.7 g/ha was 0% in the experiment with marigold (Tagetes spp.) [7] (2 lb/A); 99% in the experiment with foxtail (Setaria spp.) [8] (2 lb/A); 0% with marigold (Tagetes spp.) [9] (2 lb/A); 0% in experiment [10] (2 lb/A); 95% in the experiment on foxtail (Setaria spp.) [11] (2 lb/A); 0% in experiment [12] (2 lb/A). Further, the pest or weed control at 2241.7 g/ha in experiment [13] (2 lb/A) was 0%; in experiment [14] (2 lb/A), 0%; in [15] (2 lb/A), 0%; in the experiment on wild oats (Avena fatua) [16] (2 lb/A) it was 100%; in experiment [17] (2 lb/A) it was 0%; in experiment [18] (2 lb/A), 99%. In addition, the values for the pest or weed control at 2241.7 g/ha in [19] (2 lb/A) and in experiment [20] (2 lb/A) were 100% and 40%, respectively.

These data come from patent US4335249A, “Herbicidal diphenyl ethers, sulfides, sulfoxides and sulfones” (Rohm and Haas Company, priority 1976, dated 1982).
